In patent US7732200B2, “Materials and methods for nerve grafting, selection of nerve grafts, and in vitro nerve tissue culture” (University of Florida Research Foundation, Inc., priority 2001, dated 2010):

Experiments:
[1] = test system: CSPG; assay: CSPG neoepitope immunostaining of injured sciatic nerve after a single in vivo injection; design: species or system rat; conditions: 1 U in 2 μl injected 2 mm distal to injury; 4 days (transection) or 2 days (crush)
Description: Surgical procedures for nerve transection and nerve crush experiments. All surgical procedures were performed according to Institutional Animal Care and Use Committee (IACUC) approved protocols. Young adult SPRAGUE DAWLEY rats (HARLAN Indianapolis, Ind.) were deeply anesthetized with xylazine (15 mg/kg, i.m.) followed by ketamine-HCl (110 mg/kg, i.p.). Six animals received bilateral nerve crush injuries. Sciatic nerves were exposed and then crushed with firm pressure for thirty seconds with a DUMONT #5 forceps at a site 4 mm distal to the tendon of the internal obdurator. The crush site was marked with an epineurial suture. In a separate set of experiments, eight rats received bilateral sciatic nerve transection injuries using serrated scissors. The proximal and distal stumps were […] by epineurial neurorrhaphy using 9-0 ETHILON sutures. Fibrin glue (fibrinogen and thrombin) was then applied to stabilize the union. In both injury models, the right sciatic nerves were injected 2-mm distal to the injury with chondroitinase ABC (1 U in 2 μl) (high-purity, protease-free; SIGMA CHEMICAL CO., St. Louis, Mo.). Left sciatic nerves (with the same injury as the right side) were injected with vehicle alone (0.1% bovine serum albumin in PBS). […]
Immunocytochemistry. Axonal regeneration was assessed by GAP-43 immunofluorescence and digital image analysis. […]

[2] = test system: rat sciatic nerve; assay: Human-to-rat acellular nerve xenograft model (GAP-43 profiles); format: in vivo; conditions: acellular human nerve fascicle grafts in rat, 8 days, 2 rats
Description: In the following experiments, the hypothesis that chondroitinase treatment improves nerve regeneration through acellular human nerve grafts in a rat xenograft model was tested. Subunits (individual fascicles) taken from human nerves were treated en bloc with vehicle or chondroitinase ABC. Ten-mm interpositional nerve grafts were joined to the rat host sciatic nerve by epineurial neurorrhaphy reinforced with fibrin glue. Each of 2 host rats received bilateral grafts, one vehicle-treated and one chondroitinase-treated graft. Regeneration was initially examined after 8 days. Axonal growth was assessed at specified spatial intervals within the graft by scoring GAP-43-immunopositive profiles in transverse sections.

[3] = test system: sciatic nerve; assay: Axonal regeneration after sciatic nerve transection (neurotmesis) and neurorrhaphic repair; format: in vivo, rat

Substance: chondroitinase ABC
- CSPG degradation in extracellular matrix around the injection site [1]: substantially, if not completely, degraded CSPG
- average number of axons (GAP-43-immunopositive profiles) entering grafts vs control grafts [2]: more than three-fold greater
- score of axons immediately distal to the coaptation vs control ([3]; 1 U in 2 μl, 4 days after injury, 7 nerves per condition): two-fold greater
- animals in which the number of axons entering the distal nerve was greater than in the control nerve ([3]; 4 days after injury): 7/7
- propensity of axons to regrow within basal laminae of the distal nerve ([3]; GAP-43 and laminin double-immunolabeling): unaltered
- animals with increases greater than 3.5-fold ([3]; axons immediately distal to coaptation, 4 days): 3/7
